In PubChem BioAssay (NCI):
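Step 1: Grow cells in 96-well plates. Step 2: Expose to compound for 48 hours at 5 concentrations. Step 3: Interpolate endpoints linearly; if unreached, use highest concentration. GI50 marks 50% less growth. TGI: concentration producing complete growth inhibition.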

Columns and labels:
Assay in all cases: NCI anticancer screen, dose series, 48 h
[1] = tested on: SF-295 CNS
[2] = tested on: SK-MEL-5 melanoma
[3] = tested on: PC-3 prostate
[4] = tested on: HCT-116 colon
[5] = tested on: LOX IMVI melanoma
[6] = tested on: CAKI-1 renal
[7] = tested on: CCRF-CEM leukemia
[8] = tested on: OVCAR-4 ovarian
[9] = tested on: HCT-15 colon
[10] = tested on: SR leukemia

SMILES | TGI [1] | TGI [2] | TGI [3] | TGI [4] | TGI [5] | TGI [6] | TGI [7] | TGI [8] | TGI [9] | GI50 [3] | GI50 [4] | GI50 [6] | GI50 [7] | GI50 [10] | TGI [10] | GI50 [8] | GI50 [9] | GI50 [1] | GI50 [2] | GI50 [5]
N#Cc1c(Cl)c2cc([N+](=O)[O-])ccc2n2c1nc1ccccc12 | 62.4 µM | 44.4 µM | 12.5 µM | > 100 µM | 3.05 µM | 4.78 µM | 4.27 µM | 3.58 µM | 2.3 µM | – | – | – | – | – | – | – | – | – | – | –
C=C(C)C(=O)OC1CCC2(C)C(CCC3C2CCC2(C)C(c4ccc(=O)oc4)CC4OC432)C1 (configuration not stated) | 23.1 µM | 19.1 µM | – | 19 µM | 24.1 µM | 15 µM | 15.3 µM | 34 µM | 32 µM | – | – | – | – | – | – | – | – | – | – | –
COc1cc(/C=C2\CCCC3=C2NC(C)=NC3c2cc(OC)c(OC)c(OC)c2)cc(OC)c1OC (configuration not stated) | – | – | > 100 µM | 1.76 µM | – | 22.9 µM | > 100 µM | > 100 µM | > 100 µM | 2.05 µM | 0.46 µM | 2.61 µM | 0.838 µM | 0.436 µM | 7.66 µM | 2.39 µM | 1.03 µM | – | – | –
O=S1(=O)N(CCNc2nccc(-c3c(-c4cccc(O)c4)nc4sccn34)n2)CCN1Cc1ccccc1 | 20.3 µM | 9.79 µM | > 50 µM | 19.4 µM | 16.2 µM | 17.8 µM | 30.9 µM | > 50 µM | 20.9 µM | 5.66 µM | 5.56 µM | 4.4 µM | 2.26 µM | 9.76 µM | > 50 µM | 13.6 µM | 6.05 µM | 7.57 µM | 3.04 µM | 2.57 µM
Cc1nc2ccccc2n1C(=O)c1c(F)c(F)c(F)c(F)c1F | > 100 µM | 26.9 µM | 71.4 µM | 21.8 µM | 25.1 µM | 48.9 µM | > 100 µM | 29 µM | 33.9 µM | – | – | – | – | – | > 100 µM | – | – | – | – | –
Cc1cc(O)c(C(C)(C)C)cc1Sc1cc(C(C)(C)C)c(O)cc1C | 5.61 µM | 3.02 µM | 10.6 µM | – | 3.64 µM | 6.62 µM | 14.5 µM | 12.5 µM | 11.8 µM | 2.77 µM | – | 2.07 µM | 2.95 µM | 1.89 µM | 7.23 µM | 3.16 µM | 2.96 µM | 2.32 µM | 1.58 µM | 1.97 µM
Clc1ccccc1/C=C/c1cscn1 | – | – | – | > 100 µM | > 100 µM | – | > 100 µM | > 100 µM | > 100 µM | – | – | – | – | – | > 100 µM | – | – | – | – | –
C=CC1(C)CCC2=C(CCC3C(C)(C(=O)OC)CCCC23C)C1=O (configuration not stated) | 72.5 µM | 30.3 µM | – | 31.1 µM | 34.3 µM | 87.1 µM | 68 µM | 28.2 µM | 42.7 µM | – | – | – | – | – | 42 µM | – | – | – | – | –
O=C(N/N=C\c1cccc(O)c1)c1ccncc1 | > 100 µM | – | > 100 µM | > 100 µM | > 100 µM | > 100 µM | – | > 100 µM | > 100 µM | – | – | – | – | – | > 100 µM | – | – | – | – | –
CCOC(=O)C(O)(NC(=O)c1ccc(F)cc1)C(F)(F)F (configuration not stated) | > 100 µM | > 100 µM | > 100 µM | > 100 µM | > 100 µM | > 100 µM | > 100 µM | > 100 µM | > 100 µM | – | – | – | – | – | > 100 µM | – | – | – | – | –
O=C1NN(C2=NNC3(C(=O)N2)c2ccccc2-c2ccccc23)C(c2ccccc2)=N/C1=C/c1ccc(O)cc1 | > 150 µg/mL | > 150 µg/mL | > 150 µg/mL | > 150 µg/mL | 71.3 µg/mL | > 150 µg/mL | > 150 µg/mL | > 150 µg/mL | > 150 µg/mL | 56.3 µg/mL | 103 µg/mL | 64.2 µg/mL | 46.4 µg/mL | 59.7 µg/mL | > 150 µg/mL | 57.5 µg/mL | 49.6 µg/mL | 56.9 µg/mL | 39.2 µg/mL | 32.2 µg/mL
